Assay results from patent US20090318527A1, “INDOLE COMPOUNDS AND METHODS OF USE THEREOF” (priority 2008, published 2009).

Tests used:
[1] = test system: mice; assay: Appetite suppression studies in food-deprived mice; assay type: in vivo; conditions: mice food-deprived 18 hours, i.p.; for % Reduction from control (food consumption): p <0.05 versus saline control
Procedure: Mice were deprived of food, but not water, for 18 hours. They were then injected i.p. with test compounds dissolved in 0.9% NaCl containing 1 mg per ml ascorbic acid for protection against oxidation. Each mouse was placed in an individual cage for 30 minutes and then presented with a small petri dish containing a gel made from gelatin, powdered milk and sucrose. The dish was weighed at zero time and at 15-minute intervals for the next hour in order to quantitate food consumption. Controls were injected with saline-ascorbic acid; ±fenfluramine was used as an active control.

[2] = test system: mice; assay: Serotonin-induced scratching in mice (animal model for OCD); assay type: in vivo, male Swiss-Webster mice
Procedure: The subjects were male Swiss-Webster mice, 4-6 weeks old, weighing 25-45 g. Mice were housed 5 per cage, given free access to standard mouse food and water except during experiments, and maintained in a temperature-controlled room (70° F.). Serotonin and all test drugs were made up with ascorbic acid to protect against oxidation. Two mice, one a control, the other experimental, were tested each time. Each mouse was separately placed into a plexiglas box.
Mice were injected subcutaneously between the shoulder blades with 0.1 ml of serotonin, 0.4 mg per ml in 0.15 M saline plus ascorbic acid, 1 mg/ml. […] The cumulative number of scratches with a hind leg was recorded at 5 minute intervals for 30 minutes. One saline injected control and one test animal were tested together in each assay.

[3] = target: T1, human 5-HT2A receptor (Homo sapiens, UniProt P28223); assay: Intracellular calcium flux assay, HEK 293 cells stably expressing 5-HT2A; assay type: cell-based; conditions: for Emax at 10 µM: HEK293, read-out: 5-HT2A functional activity (N/A class);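 as to all read-outs here: fluorescent calcium dye read on FLIPR Tetra, peak signal above baseline within 60 s after compound addition, seven concentrations spanning 10 pM to 10 µM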
T1 construct: expressed in transfected cells; host or cells: HEK 293
T1 sequence (P28223 whole entry): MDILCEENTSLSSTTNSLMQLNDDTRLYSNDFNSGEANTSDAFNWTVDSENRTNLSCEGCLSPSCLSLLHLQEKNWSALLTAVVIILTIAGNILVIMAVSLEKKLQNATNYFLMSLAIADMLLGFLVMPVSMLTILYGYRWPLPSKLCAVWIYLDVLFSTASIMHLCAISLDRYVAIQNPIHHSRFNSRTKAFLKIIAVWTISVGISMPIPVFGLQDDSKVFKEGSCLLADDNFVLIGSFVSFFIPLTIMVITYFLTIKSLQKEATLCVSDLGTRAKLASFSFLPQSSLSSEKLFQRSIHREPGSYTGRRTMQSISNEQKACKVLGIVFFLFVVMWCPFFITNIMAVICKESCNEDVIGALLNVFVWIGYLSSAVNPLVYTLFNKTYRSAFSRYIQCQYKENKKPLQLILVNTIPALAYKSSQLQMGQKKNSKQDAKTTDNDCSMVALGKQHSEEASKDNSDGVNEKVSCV

[4] = target: T2, human 5-HT2B receptor (Homo sapiens, UniProt P41595); assay: Intracellular calcium flux assay, HEK 293 cells stably expressing 5-HT2B; assay type: cell-based; conditions: HEK293; at 10,000 nM; read-out: 5-HT2B functional activity (N/A class);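 also: calcium dye fluorescence read on a FLIPR Tetra, peak signal above baseline within 60 s after compound addition, seven-point concentration series from 10 pM up to 10 µM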
T2 construct: expressed in transfected cells; host or cells: HEK 293
T2 sequence (P41595 whole entry): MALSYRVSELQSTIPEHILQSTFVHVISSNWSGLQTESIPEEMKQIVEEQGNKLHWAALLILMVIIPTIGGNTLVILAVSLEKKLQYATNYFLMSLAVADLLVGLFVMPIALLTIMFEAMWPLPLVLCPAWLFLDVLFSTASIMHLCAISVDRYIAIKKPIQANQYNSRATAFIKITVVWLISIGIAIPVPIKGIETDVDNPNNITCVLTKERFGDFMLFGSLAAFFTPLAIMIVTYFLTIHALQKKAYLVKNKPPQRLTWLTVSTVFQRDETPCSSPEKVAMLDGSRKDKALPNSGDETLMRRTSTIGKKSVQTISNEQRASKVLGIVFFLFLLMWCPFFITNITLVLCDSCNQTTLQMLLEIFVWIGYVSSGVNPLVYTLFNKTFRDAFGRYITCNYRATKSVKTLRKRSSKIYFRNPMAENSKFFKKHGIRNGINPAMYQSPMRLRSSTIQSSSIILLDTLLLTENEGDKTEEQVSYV

[5] = target: T3, 5-HT2C (Homo sapiens, UniProt P28335); assay: Intracellular calcium flux assay, HEK 293 cells stably expressing 5-HT2C; assay type: cell-based; design: expressed in transfected cells; host or cells: HEK 293; conditions: for Emax: HEK293, read-out: 5-HT2C efficacy as percentage of the maximal 5-HT response ± SD, at least three independent experiments, entries marked a (42, 50, 51, 52) single measurements; for EC50: at least three independent experiments, entries marked a (42, 50, 51, 52) single measurements, read-out: 5-HT2C mean EC50 ± SD;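 as to all read-outs here: calcium dye fluorescence read on FLIPR Tetra as peak signal above baseline within 60 s of compound addition, seven concentrations from 10 pM to 10 µM, each in triplicate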
T3 sequence (P28335 33-458): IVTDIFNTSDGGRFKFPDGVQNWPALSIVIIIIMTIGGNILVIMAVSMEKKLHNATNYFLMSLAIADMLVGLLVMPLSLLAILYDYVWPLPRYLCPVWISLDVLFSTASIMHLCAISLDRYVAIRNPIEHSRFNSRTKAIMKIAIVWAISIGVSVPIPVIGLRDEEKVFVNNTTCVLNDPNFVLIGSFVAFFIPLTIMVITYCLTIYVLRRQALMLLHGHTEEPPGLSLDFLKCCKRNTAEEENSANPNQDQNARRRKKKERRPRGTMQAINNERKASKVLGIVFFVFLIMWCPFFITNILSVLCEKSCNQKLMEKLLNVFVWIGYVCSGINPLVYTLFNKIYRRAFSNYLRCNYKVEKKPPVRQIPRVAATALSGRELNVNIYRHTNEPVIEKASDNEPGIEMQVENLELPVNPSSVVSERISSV

[6] = target: T3, 5-HT2C; conditions: cited from earlier work
[7] = i.p. 5 minutes before serotonin s.c., 3 mg/kg
[8] = i.p., 3 mg/kg, p <0.05 versus saline control (*p = 0.09)
[9] = i.p. 5 minutes before serotonin s.c., 10 mg/kg
[10] = i.p., 10 mg/kg, p <0.05 versus saline control

| Compound | Emax at 10 µM [4] [%] | Emax [5] [%] | EC50 [5] [nM] | Emax at 10 µM ([3]; at 10,000 nM) [%] | melting point [°C] | other results |
| --- | --- | --- | --- | --- | --- | --- |
| CCNC(C)Cc1cccc(C(F)(F)F)c1 (racemic) [(±)-Fenfluramine, reference compound] | – | – | – | – | – | Mean food consumption 60 min. after injection: g (±SEM) Compound ([1]; 5 mg/kg): 0.90 (.04) g; % Reduction from control (food consumption) ([1]; 5 mg/kg): 39%; Mean food consumption 60 min. after injection: g (±SEM) Compound ([1]; 10 mg/kg): 0.41 (.11) g; % Reduction from control (food consumption) ([1]; 10 mg/kg): 69%; Average Number of Scratches 30 min. after injection (±SEM) [2, 7]: 22.8 ± 11.7; % Reduction from control (scratches) [2, 8]: 95%; Average Number of Scratches 30 min. after injection (±SEM) ([2]; oral gavage, 10 mg/kg): 35 ± 25.8; % Reduction from control (scratches) ([2]; oral gavage, 10 mg/kg, p < 0.05): 94% |
| COc1ccc(F)c2c1c(CCN(C)C)cn2C [Compound 22, 2-(7-Fluoro-4-methoxy-1-methyl-1H-indol-3-yl)-N,N-dimethylethanamine] | < 10 | 82 | 9.4 ± 4.9 | – | – | 5-HT2A response as percentage of the maximal 5-HT response @ 10,000 ([3]; at 10,000 nM, EC50 not reached): (21 ± 6 @ 10,000) %; EC50 ([3]; calcium flux, at least three independent experiments, each in triplicate, read-out: 5-HT2A mean EC50 ± SD): > 10000 nM; Mean food consumption 60 min. after injection: g (±SEM) Compound ([1]; 10 mg/kg): 0.15 (0.1) g; % Reduction from control (food consumption) ([1]; 10 mg/kg): 77%; Average Number of Scratches 30 min. after injection (±SEM) [2, 9]: 4.7 ± 4.7; % Reduction from control (scratches) [2, 10]: 98.5%; Average Number of Scratches 30 min. after injection (±SEM) ([2]; oral gavage, 20 mg/kg): 102 ± 50.8; % Reduction from control (scratches) ([2]; oral gavage, 20 mg/kg, p < 0.05): 83% |
| COc1c(F)ccc2c1c(CCN(C)C)cn2C.Cl [Compound 40, 2-(5-Fluoro-4-methoxy-1-methyl-1H-indol-3-yl)-N,N-dimethylethanamine hydrochloride] | < 10 | 72 | 3.1 ± 1.2 | < 10 | 183.6 to 186.8 | Average Number of Scratches 30 min. after injection (±SEM) [2, 7]: 8.2 ± 5.1; % Reduction from control (scratches) [2, 8]: 97* % |
| CCCn1cc(CCN(C)C)c2c(OC)c(F)ccc21.Cl [Compound 42, 2-(5-Fluoro-4-methoxy-1-propyl-1H-indol-3-yl)-N,N-dimethylethanamine hydrochloride] | < 10 | 34 | 741 | < 10 | 111 to 113 | – |
| CN(C)CCc1cn(C)c2c(F)ccc(OCc3ccccc3)c12 [Compound 50, 4-Benzyloxy-3-(2-dimethylaminoethyl)-7-fluoro-1-methyl-1H-indole] | < 10 | 81 | 282 | < 10 | 60 to 62 | – |
| CN(C)CCc1cn(C)c2cc(F)cc(OCc3ccccc3)c12 [Compound 51, 4-Benzyloxy-3-(2-dimethylaminoethyl)-6-fluoro-1-methyl-1H-indole] | < 10 | 99 | 233 | < 10 | 79 to 80 | – |
| CN(C)CCc1cn(C)c2ccc(F)c(OCc3ccccc3)c12.Cl [Compound 52, 4-Benzyloxy-3-(2-dimethylaminoethyl)-5-fluoro-1-methyl-1H-indole hydrochloride] | < 10 | 79 | 44 | < 10 | 139 to 141 | – |
| COc1c(F)cc(F)c2c1c(CCN(C)C)cn2C.Cl [Compound 58, 2-(5,7-Difluoro-4-methoxy-1-methyl-1H-indol-3-yl)-N,N-dimethylethanamine hydrochloride] | < 10 | 51 | 2.4 ± 0.44 | < 10 | 185 to 189 | – |
| CCOc1c(F)ccc2c1c(CCN(C)C)cn2CC.Cl [Compound 60, 2-(4-Ethoxy-1-ethyl-5-fluoro-1H-indol-3-yl)-N,N-dimethylethanamine hydrochloride] | < 10 | 69 | 4.2 ± 0.94 | < 10 | 130 to 132 | – |
| CCCn1cc(CCN(C)C)c2c(OCC)c(F)ccc21.Cl [Compound 61, 2-(4-Ethoxy-5-fluoro-1-propyl-1H-indol-3-yl)-N,N-dimethylethanamine hydrochloride] | < 10 | 38 | 13 ± 1.51 | < 10 | 141 to 143 | – |
| CN(C)CCc1cn(C)c2c(F)ccc(F)c12.Cl [Compound 65, 2-(4,7-Difluoro-1-methyl-1H-indol-3-yl)-N,N-dimethylethanamine hydrochloride] | < 10 | 41 | 16 ± 3.46 | < 10 | 209 to 210 | – |
| COc1ccc(Br)c2c1c(CCN(C)C)cn2C.Cl [Compound 73, 2-(7-Bromo-4-methoxy-1-methyl-1H-indol-3-yl)-N,N-dimethylethanamine hydrochloride] | < 10 | 48 | 274 ± 57.7 | < 10 | 235 to 236 | – |
| CN(C)CCc1cn(C)c2cc(O)c(F)cc12 [Compound 82, 3-[2-(Dimethylamino-ethyl)]-5-fluoro-1-methyl-1H-indol-6-ol] | < 10 | 83 | 589 ± 546 | < 10 | 165 to 169 | – |
| CCCn1cc(CCN(C)C)c2cc(F)c(O)cc21 [Compound 84, 3-[2-(Dimethylamino-ethyl)]-5-fluoro-1-propyl-1H-indol-6-ol] | < 10 | 70 | 507 ± 314 | < 10 | 157 to 159 | – |
| CNCCC(Oc1ccc(C(F)(F)F)cc1)c1ccccc1 (stereo not shown) [Fluoxetine, reference compound] | – | – | – | – | – | Average Number of Scratches 30 min. after injection (±SEM) [2, 9]: 154.8 ± 105.2; % Reduction from control (scratches) [2, 10]: 63.5% |
| C[C@H](N)Cn1ccc2cc(F)c(Cl)cc21 [Ro 60-0175] | – | – | – | – | – | times more active at 5-HT2C as compared to 5-HT2A ([6]; 5-HT2C versus 5-HT2A): 25 times; selectivity over 5-HT2B receptors ([6]; 5-HT2C versus 5-HT2B): not selective |
